Like-named read-outs stand apart in the source and are kept apart here.
How the values were obtained:
III-B strain of HIV-1 = assay: microbe, parasite or virus in culture; assay type: cell-based
Description: (§1) C8166 cells. Cells were grown in RPMI 1640 with 10% calf serum. 4×10^4 cells per microtiter plate well were mixed with 5-fold dilutions of compound prior to addition of 10 CCID50 units of III-B strain of HIV-1 and incubated for 5–7 days (Betbeder et al. Antiviral Chem. Chemother. 1, 241–247, 1990). Formation of syncytia was examined from 2 days post-infection. Culture fluid was collected at 5–7 days and gp120 antigen production measured by ELISA (Mahmood and Hay, J. Immunol. Meth., 151, 9–13, 1992). […] Cell viability of infected and uninfected cells were assessed by the MTT-Formazen method (Pauwels et al. J. Virol. Meth. 20, 309–321, 1988).
(§2) Each assay was carried out in duplicate, on at least two separate occasions, and data quoted are the average of each separate assay.

HIV-2 [1] = assay: Inhibition of HIV-2 in CEM/TK- cells; assay type: cell-based
Summary of the method: (§3)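 Infection used 100 CCID50 per mL on 5×10^5 cells/mL, followed by exposure to serial compound dilutions. Read-out: microscopic giant cell scoring after 4 days (CEM); trypan blue viable cell count after 5 days (MT-4).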

MT-4 cells = assay: Toxicity to MT-4 cells; assay type: cell-based, human; details: Table 6; mean of two or more repeat experiments; read-out: CC50 MT4: CC50 for toxicity to MT-4 cells
Description: (§4) Cells were infected with HIV-1 as previously described [Balzarini et al. AIDS (1991), 5, 21–28]. Briefly, 5×10^5 cells per milliliter were infected with HIV-1 or HIV-2 at 100 CCID50 (50% cell culture infective dose) per milliliter of cell suspension. Then 100 μL of the infected cell suspension was transferred to microtiter plate wells and mixed with 100 μL of the appropriate dilutions of the test compounds. After 4 days giant cell formation was recorded microscopically in the HIV-infected cell cultures [CEM], and after 5 days the number of viable cells was determined by trypan blue staining of the HIV-infected cell cultures [MT4].
(§5) The data columns are, in order: • HIV1 MT4: EC50 in μM for inhibition of HIV-1 in MT4 cells. • HIV2 MT4: EC50 in μM for inhibition of HIV-2 in MT4 cells. • CC50 MT4: CC50 in μM for toxicity to MT-4 cells. • HIV1 CEM: EC50 in μM for inhibition of HIV-1 in CEM cells. • HIV2 CEM: EC50 in μM for inhibition of HIV-2 in CEM cells. • HIV2 CEM-TK-: EC50 in μM for inhibition of HIV-2 in CEM/TK^− cells. • CC50 CEM: CC50 in μM for toxicity to CEM cells. • EC50 MSV: EC50 in μM for inhibition of MSV • MCC MSV: Minimum cytotoxic concentration in MSV assay

CEM cells = assay: Toxicity to CEM cells; assay type: cell-based, human; details: Table 6; mean of two or more repeat experiments
HIV-1 [2] = assay: Inhibition of HIV-1 in MT4 cells; assay type: cell-based; details: Table 6; mean of two or more repeat experiments; read-out: HIV1 MT4: EC50 for inhibition of HIV-1 in MT4 cells
Description: as §4, §5

HIV-2 [3] = assay: Inhibition of HIV-2 in CEM cells (giant cell formation); assay type: cell-based; details: Table 6; mean of two or more repeat experiments; read-out: HIV2 CEM: EC50 for inhibition of HIV-2 in CEM cells
Summary of the method: as §3

HIV1 d4T-Resistant = assay: HIV1 in HeLa cells, d4T-resistant strain; assay type: cell-based, HIV-1; details: Table 4; read-out: EC50 HeLa HIV1 d4T-Resistant
HIV-2 [4] = assay: Inhibition of HIV-2 in MT4 cells; assay type: cell-based; details: Table 6; mean of two or more repeat experiments; read-out: HIV2 MT4: EC50 for inhibition of HIV-2 in MT4 cells
Description: as §4, §5

C8166 cells = assay: Toxicity in C8166 cells (MTT-Formazen); assay type: cell-based; details: Table 3
Description: as §1, §2

HIV1 d4T-Sensitive = assay: HIV1 in HeLa cells, d4T-sensitive strain; assay type: cell-based, HIV-1; details: Table 4
HIV-1 [5] = assay: microbe, parasite or virus in culture
Summary of the method: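 Trypan blue staining of MT-4 cultures on day 5 gave viable cell numbers; CEM cultures were checked microscopically for giant cells on day 4. Both cell types were infected at 100 CCID50/mL (5×10^5 cells/mL) and incubated with compound dilutions.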

HIV RT = HIV RT (Human immunodeficiency virus type 1 group M subtype B, UniProt P03366); assay: Inhibition of HIV reverse transcriptase; assay type: biochemical; details: Table 4
[6] = HIV1 in C8166 cells, Table 3, read-out: Activity EC50
[7] = Table 4, read-out: EC50 8166 HIV1
[8] = Table 4, read-out: EC50 CEM TK− HIV2
[9] = Table 6, mean of two or more repeat experiments, read-out: HIV2 CEM-TK-: EC50 for inhibition of HIV-2 in CEM/TK^− cells
[10] = read-out: EC50 CEM HIV1, Table 4
[11] = read-out: HIV1 CEM: EC50 for inhibition of HIV-1 in CEM cells, Table 6, mean of two or more repeat experiments

SMILES | Selectivity CC50/EC50 × 10^3 (III-B strain of HIV-1) | EC50 (III-B strain of HIV-1; [6]) [µM] | EC50 (III-B strain of HIV-1; [7]) [µM] | EC50 (HIV-2 [1]; [8]) [µM] | EC50 (HIV-2 [1]; [9]) [µM] | CC50 (MT-4 cells) [µM] | CC50 (CEM cells) [µM] | EC50 (HIV-1 [2]) [µM] | EC50 (HIV-2 [3]) [µM] | EC50 (HIV1 d4T-Resistant) [µM] | EC50 (HIV-2 [4]) [µM] | CC50 (C8166 cells) [µM] | EC50 (HIV1 d4T-Sensitive) [µM] | EC50 (HIV-1 [5]; [10]) [µM] | EC50 (HIV-1 [5]; [11]) [µM] | EC50 (III-B strain of HIV-1; Human immunodeficiency virus 1, C8166, Table 4, read-out: EC50 8166 HIV1) [µM] | EC50 (HIV-2 [1]; Human immunodeficiency virus 2, CEM-TK(-), Table 4, read-out: EC50 CEM TK− HIV2) [µM] | EC50 HIV RT (HIV RT) | EC50 (HIV-1 [5]; Human immunodeficiency virus 1, CCRF-CEM, read-out: EC50 CEM HIV1) [µM]
COC(=O)C(C)NP(=O)(OC[C@@H]1C=C[C@H](n2cc(C)c(=O)[nH]c2=O)O1)Oc1cc(Cl)cc(Cl)c1 (some centres unmarked) [Compound 546, 2′,3′-dideoxy-2′,3′-didehydrothymidine 5′-(3,5-dichlorophenylmethoxyalaninyl) phosphoramidate] | 100 × 10^3 | 0.001 | 0.001 | 0.06 | 0.12 | 10.5 | 26.9 | 0.037 | 0.15 | 0.04 | 0.12 | 100 | 0.03 | 0.06 | 0.12 |  |  |  | 
COC(=O)C(C)NP(=O)(OCC1C=CC(n2cc(C)c(=O)[nH]c2=O)O1)Oc1cccc(C(F)(F)F)c1 (centres unmarked) [Compound 526, 2′,3′-dideoxy-2′,3′-didehydrothymidine 5′-(m-trifluromethylphenylmethoxyalaninyl) phosphoramidate] | 250 × 10^3 | 0.0008 | 0.0008 | 0.06 | 0.12 | 10 | 30 | 0.05 | 0.15 | 0.05 | 0.11 | 200 | 0.04 | 0.08 | 0.15 |  |  |  | 
COC(=O)C(CCSC)NP(=O)(OCC1C=CC(n2cc(C)c(=O)[nH]c2=O)O1)Oc1ccccc1 (centres unmarked) [Compound 867, 2′,3′-dideoxy-2′,3′-didehydrothymidine-5′-(phenyl N-methoxymethioninyl) phosphoramidate] | >62.5 × 10^3 | 0.0016 |  |  | 0.34 | 22 | ≥ 250 | 0.2 | 0.8 |  | 0.4 | > 1000 |  |  | 0.6 |  |  |  | 
COC(=O)C(CC(C)C)NP(=O)(OCC1C=CC(n2cc(C)c(=O)[nH]c2=O)O1)Oc1ccccc1 (centres unmarked) [Compound 864, 2′,3′-dideoxy-2′,3′-didehydrothymidine-5′-(phenyl N-methoxy-leucinyl) phosphoramidate] | >62.5 × 10^3 | 0.016 |  |  | 0.4 | 62 | ≥ 250 | 0.2 | 2.23 |  | 0.5 | > 1000 |  |  | 1.1 |  |  |  | 
CCc1ccc(OP(=O)(N[C@@H](C)C(=O)OC)OCC2C=CC(n3cc(C)c(=O)[nH]c3=O)O2)cc1 (some centres unmarked) [Compound 323, 2′,3′-dideoxy-2′,3′-didehydrothymidine 5′-(p-ethylphenylmethoxyalaninyl) Phosphoramidate] | 15.6 × 10^3 | 0.0032 |  |  | 0.06 | > 100 | 60 | 0.057 | 0.16 |  | 0.063 | 50 |  |  | 0.07 |  |  |  | 
COC(=O)C(C)NP(=O)(OC[C@@H]1C=C[C@H](n2cc(C)c(=O)[nH]c2=O)O1)Oc1c(F)c(F)c(F)c(F)c1F (some centres unmarked) [Compound 779, 2′,3′-dideoxy-2′,3′-didehydrothymidine-5′-(2,3,4,5,6-pentafluorophenyl-N-methylalaninyl) phosphoramidate] | 1.25 × 10^3 | 0.064 |  |  | 8.5 | 82 | 115 | 1.72 | 3.7 |  | 4.01 | 80 |  |  | 2.5 |  |  |  | 
Cc1cn([C@H]2C[C@H](N=[N+]=[N-])[C@@H](CO)O2)c(=O)[nH]c1=O [AZT, 3′-azido-3′-deoxythymidine, reference compound] |  |  |  |  |  |  |  |  |  |  |  |  |  |  |  | 0.008 | > 100 | Inactive | 0.003
COC(=O)C(Cc1ccccc1)NP(=O)(OC[C@@H]1C=C[C@H](n2cc(C)c(=O)[nH]c2=O)O1)Oc1ccccc1 (some centres unmarked) [Compound 863, 2′,3′-dideoxy-2′,3′-didehydrothymidine-5′-(phenyl N-methoxy-phenylalaninyl) phosphoramidate] | 31.2 × 10^3 | 0.016 |  |  | 0.33 | 34 | 216 | 0.2 | 1.35 |  | 0.4 | 500 |  |  | 0.8 |  |  |  | 
COC(=O)C(NP(=O)(OCC1C=CC(n2cc(C)c(=O)[nH]c2=O)O1)Oc1ccccc1)C(C)C (centres unmarked) [Compound 865, 2′,3′-dideoxy-2′,3′-didehydrothymidine-5′-(phenyl N-methoxyvalinyl) phosphoramidate] | >1.25 × 10^3 | 0.8 |  |  | 4 | ≥ 250 | > 250 | 3.6 | 12.5 |  | 11.2 | > 1000 |  |  | 12.5 |  |  |  | 
Cc1cn(C2C=CC(COP(=O)(NC(Cc3ccccc3)C(=O)OCc3ccccc3)Oc3ccccc3)O2)c(=O)[nH]c1=O (centres unmarked) [Compound 866, 2′,3′-dideoxy-2′,3′-didehydrothymidine-5′-(phenyl N-methoxyglycinyl) phosphoramidate] | >1.25 × 10^3 | 0.8 |  |  | 7 | ≥ 250 | ≥ 250 | 1.3 | 6 |  | 6.7 | > 1000 |  |  | 6 |  |  |  | 

From patent publication US7018989B2, “Chemical compounds” (University College Cardiff Consultants, LTD, priority 1995, dated 2006)
